In the supplement of paper PMC10307832:

What was measured:
Experiment in all cases: relative viability (nuclei count vs DMSO), 5 days (fraction); higher = more cells survive
Dactolisib + Pemetrexed = compound: Cn1c(=O)n(-c2ccc(C(C)(C)C#N)cc2)c2c3cc(-c4cnc5ccccc5c4)ccc3ncc21 [Dactolisib] + Nc1nc2[nH]cc(CCc3ccc(C(=O)N[C@@H](CCC(=O)O)C(=O)O)cc3)c2c(=O)[nH]1 [Pemetrexed] (partner 0.2 µM)
Procedure, shortened: (§1)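 The day after seeding in 1536-well plates, lung cancer cell lines were treated by pin tool with a single drug, or with a fixed anchor-drug dose together with five library-drug doses (not always all listed) in √10 steps. After 5 days, a combined fix-and-stain solution (final 0.05% Triton X-100, 1% formaldehyde, 1 ug/ml Hoechst) was added. Nuclei counted on 4× images gave relative viability as treated counts over vehicle counts, reported as the median of duplicate plates.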

Dactolisib + OSI-027 = compound: Cn1c(=O)n(-c2ccc(C(C)(C)C#N)cc2)c2c3cc(-c4cnc5ccccc5c4)ccc3ncc21 [Dactolisib] + COc1cccc2cc(-c3nc([C@H]4CC[C@H](C(=O)O)CC4)n4ncnc(N)c34)[nH]c12 [OSI-027] (partner 0.5 µM)
Procedure, shortened: as §1

Dactolisib + Lapatinib = compound: Cn1c(=O)n(-c2ccc(C(C)(C)C#N)cc2)c2c3cc(-c4cnc5ccccc5c4)ccc3ncc21 [Dactolisib] + CS(=O)(=O)CCNCc1ccc(-c2ccc3ncnc(Nc4ccc(OCc5cccc(F)c5)c(Cl)c4)c3c2)o1 [Lapatinib] (partner 2 µM)
Procedure, shortened: as §1

AZ505 + Foretinib = compound: C1CCC(CC1)N(CCNCCC2=C3C(=C(C=C2)O)NC(=O)CO3)C(=O)CCNCCC4=CC(=C(C=C4)Cl)Cl [AZ505] + COc1cc2c(Oc3ccc(NC(=O)C4(C(=O)Nc5ccc(F)cc5)CC4)cc3F)ccnc2cc1OCCCN1CCOCC1 [Foretinib] (partner 0.25 µM)
Procedure, shortened: as §1

| Cell Line | relative viability (Dactolisib + Pemetrexed; first compound 0.002 µM) | relative viability (Dactolisib + Pemetrexed; first compound 0.006325 µM) | relative viability (Dactolisib + Pemetrexed; first compound 0.02 µM) | relative viability (Dactolisib + Pemetrexed; first compound 0.06325 µM) | relative viability (Dactolisib + Pemetrexed; first compound 0.2 µM) | relative viability (Dactolisib + OSI-027; first compound 0.002 µM) | relative viability (Dactolisib + OSI-027; first compound 0.006325 µM) | relative viability (Dactolisib + OSI-027; first compound 0.02 µM) | relative viability (Dactolisib + OSI-027; first compound 0.06325 µM) | relative viability (Dactolisib + OSI-027; first compound 0.2 µM) | relative viability (Dactolisib + Lapatinib; first compound 0.002 µM) | relative viability (Dactolisib + Lapatinib; first compound 0.006325 µM) | relative viability (Dactolisib + Lapatinib; first compound 0.02 µM) | relative viability (Dactolisib + Lapatinib; first compound 0.06325 µM) | relative viability (Dactolisib + Lapatinib; first compound 0.2 µM) | relative viability (AZ505 + Foretinib; first compound 0.08 µM) | relative viability (AZ505 + Foretinib; first compound 0.253 µM) | relative viability (AZ505 + Foretinib; first compound 0.8 µM) | relative viability (AZ505 + Foretinib; first compound 2.53 µM) | relative viability (AZ505 + Foretinib; first compound 8 µM) |
| --- | --- | --- | --- | --- | --- | --- | --- | --- | --- | --- | --- | --- | --- | --- | --- | --- | --- | --- | --- | --- |
| HARA | 0.242 | 0.22 | 0.3 | 0.235 | 0.223 | 0.576 | 0.525 | 0.602 | 0.322 | 0.264 | 0.652 | 0.67 | 0.761 | 0.421 | 0.318 | 0.85 | 0.963 | 0.766 | 0.709 | 0.633 |
| HCC-15 | 0.215 | 0.22 | 0.26 | 0.25 | 0.231 | 0.686 | 0.678 | 0.683 | 0.473 | 0.317 | 0.752 | 0.884 | 0.755 | 0.594 | 0.367 | 0.911 | 1.04 | 1.03 | 1.02 | 1.02 |
| HCC-44 | 0.609 | 0.645 | 0.596 | 0.695 | 0.672 | 0.492 | 0.559 | 0.634 | 0.439 | 0.466 | 1.09 | 1 | 1 | 0.68 | 0.547 |  |  |  |  |  |
| HCC-78 | 0.833 | 0.892 | 0.875 | 0.885 | 0.916 | 0.439 | 0.411 | 0.376 | 0.396 | 0.332 | 0.769 | 0.753 | 0.612 | 0.47 | 0.493 | 0.575 | 0.631 | 0.578 | 0.568 | 0.644 |
| HCC-366 | 0.104 | 0.183 | 0.229 | 0.173 | 0.147 | 0.924 | 0.863 | 0.889 | 0.469 | 0.556 | 0.897 | 0.988 | 1.03 | 0.445 | 0.613 | 0.926 | 0.878 | 0.889 | 0.852 | 0.924 |
| HCC-827 | 0.216 | 0.222 | 0.219 | 0.213 | 0.145 | 0.8 | 0.774 | 0.787 | 0.826 | 0.759 | 0.209 | 0.206 | 0.201 | 0.172 | 0.196 | 0.891 | 1.08 | 1.02 | 1.08 | 1.09 |
| IA-LM |  |  |  |  |  |  |  |  |  |  | 0.769 | 0.671 | 0.771 | 0.156 | 0.106 | 0.921 | 1.21 | 1.07 | 1.12 | 1.42 |
| LCLC-103H | 0.437 | 0.468 | 0.462 | 0.393 | 0.379 | 0.509 | 0.5 | 0.465 | 0.519 | 0.431 |  |  |  |  |  | 0.734 | 0.857 | 0.729 | 0.848 | 0.715 |
| NCI-H441 | 0.24 | 0.266 | 0.24 | 0.221 | 0.25 | 0.915 | 0.725 | 0.716 | 0.44 | 0.344 |  |  |  |  |  | 0.909 | 0.97 | 1.09 | 0.876 | 1.06 |
| NCI-H522 | 1.08 | 0.774 | 1.11 | 0.927 | 0.851 | 0.719 | 0.728 | 0.881 | 0.671 | 0.539 |  |  |  |  |  |  |  |  |  |  |
| NCI-H727 |  |  |  |  |  | 0.519 | 0.435 | 0.538 | 0.47 | 0.4 | 0.753 | 0.648 | 0.994 | 0.363 | 0.345 | 0.998 | 0.861 | 0.856 |  | 0.993 |
| NCI-H1299 |  |  |  |  |  |  |  |  |  |  | 0.998 | 0.974 | 0.98 | 0.893 | 0.661 | 1.01 | 1.03 | 0.987 | 1.1 | 1.1 |
| NCI-H1623 |  |  |  |  |  | 0.49 | 0.431 | 0.46 | 0.38 | 0.396 |  |  |  |  |  | 0.76 | 0.781 | 0.834 | 0.79 | 0.99 |
| NCI-H1648 | 0.779 | 0.739 | 0.896 | 0.837 | 0.52 | 0.246 | 0.286 | 0.279 | 0.235 | 0.263 |  |  |  |  |  |  |  |  |  |  |
| NCI-H1703 |  |  |  |  |  |  |  |  |  |  | 0.688 | 0.796 | 0.716 | 0.379 | 0.314 |  | 0.411 | 0.335 | 0.366 | 0.365 |
| NCI-H1792 | 0.625 | 0.473 | 0.313 | 0.109 | 0.0622 | 0.742 | 0.72 | 0.654 | 0.391 | 0.266 | 1.05 | 0.943 | 0.859 | 0.792 | 0.293 |  |  |  |  |  |
| NCI-H2342 | 0.75 | 0.833 | 0.721 | 0.779 | 0.599 | 0.684 | 0.67 | 0.572 | 0.695 | 0.518 |  |  |  |  |  | 1.07 | 1.02 | 1.02 | 1.14 | 1.14 |
| SW 900 | 0.498 | 0.48 | 0.474 | 0.259 | 0.271 | 0.495 | 0.419 | 0.474 | 0.244 | 0.213 |  |  |  |  |  | 0.85 | 0.972 | 0.968 | 0.927 | 0.616 |
